The target of assay [1] is KCa3.1 (Homo sapiens (Human), UniProt O15554). In words: Thallium influx assay (FLIPR, FluxOR). Format: cell-based. Conditions: CHOK1 cells over-expressing KCa3.1; thallium (3.3 mM)/ionomycin (1 μM) activation. On the procedure:
The thallium influx assay was performed with CHOK1 cells over-expressing KCa3.1 obtained from Evotec and maintained in MEM Alpha medium supplemented with 10% fetal bovine serum, 100 U/ml penicillin/[…] streptomycin and 250 μg/ml G418.
CHOK1 wild type cells were passaged using F12/Ham's medium supplemented with 10% fetal bovine serum, 2 mM glutamine, 100 U/ml penicillin/[…] streptomycin. All cells were cultured in T175 flasks.
Before the day of the assay, cells were harvested from culture flasks using standard trypsin digestion. Cells were counted and densities adjusted and dispensed into 384-well poly-D-lysine coated plates at 7500 […], assay plates were incubated overnight in CO2 incubator at 37° C.
The following day, growth media was removed followed by the addition of 25 ul/well of FluxOR™ (Invitrogen) loading dye in a gluconate based assay buffer (135 mM NaGluconate,
2.5 mM Kgluconate, 2 mM CaNO3, 1 mM MgNO3, 10 mM HEPES (acid), 5 mM glucose pH adjusted to 7.4). Assay plates were incubated for 1 hour at 37° C. The loading dye was then replaced with gluconate assay buffer containing probenecid.
Compounds diluted in gluconate buffer were transferred into the assay plates (25 μl/well) followed by incubation for 20 minutes at room temperature. The assay plates were then transferred to a Fluorometric Imaging Plate Reader (FLIPR), a baseline was read for twenty second capture, followed by the addition of 25 μl/well of channel activation solution in gluconate buffer—for KCa3.1 cells thallium (3.3 mM)/ionomycin(1 μM) was used and for the wild type, ionomycin only, then fluorescence was monitored for another 90 seconds.

The target of assay [2] is h KCa3.1 (Homo sapiens (Human), UniProt O15554). In words: Electrophysiology patch clamp (PatchXpress). Particulars: CHO cells over-expressing h KCa3.1, read-out: IC50 Ephys. Type of assay: cell-based. As to the method:
Electrophysiology Patch Clamp
Compounds were tested using a PatchXpress® (Model 7000A, Molecular Devices, Union City Calif.) on CHO cells over-expressing h KCa3.1 at ChanTest Corporation, 14656 Neo Parkway, Cleveland, Ohio.

Assay [3] concerns human melanoma. Particulars: severe combined immunodeficiency mice; cited from earlier work.
Assay [4] deals with human endometrial cancer cells. Particulars: nude mice; cited from earlier work.
In assay [5] the test system is allergen challenge-induced airway resistance and hyper-reactivity. Particulars: sheep model of asthma; cited from earlier work.
In assay [6] the test system is MDCK 3-D cyst. Particulars: MDCK 3-D cyst model of ADPKD; cited from earlier work.
For assay [7], the system named is trinitrobenzene sulfonic acid-induced colitis. Particulars: mice; cited from earlier work.
For assay [8], the system named is T-cell and macrophage infiltration. Particulars: in combination with a Kv1.3 blocker; early stages of chronic kidney transplant rejection; cited from earlier work.
Assay [9] concerns neointimal smooth muscle hyperplasia. Conditions: rats after carotid balloon angioplasty; cited from earlier work.
Assay [10] deals with renal fibrosis. Particulars: unilateral ureteral obstruction model; cited from earlier work.

As to `CCOC(=O)CN1C(=O)O[C@@H](c2cccc(C(F)(F)F)c2)[C@H]1c1ccc(F)cc1` (racemic) [Example 32, [(4RS,5SR)-4-(4-Fluoro-phenyl)-2-oxo-5-(3-trifluoromethyl-phenyl)-oxazolidin-3-yl]-acetic acid ethyl ester], the results for the IC50 in [1] and in assay [2] were 600 nM and 62 nM, respectively.

As to `Clc1ccccc1C(c1ccccc1)(c1ccccc1)n1ccnc1` [Clotrimazole], the number of metastases result in [3] is on record as “reduce the number of metastases”. Moreover, in assay [4], the growth of tumours entry is recorded as “slowed the growth of tumours”.

As for `NC(=O)CN1C(=O)OC(c2ccc(F)cc2)(c2ccc(F)cc2)[C@@H]1c1ccccc1` [Example 1, (S)-2-(5,5-bis(4-fluorophenyl)-2-oxo-4-phenyloxazolidin-3-yl)acetamide], the values for the IC50 in assay [1] and in [2] were 860 nM and 58 nM, respectively.

Take `NC(=O)CN1C(=O)OC(c2ccc(F)cc2)(c2ccc(F)cc2)[C@@H]1c1ccc(F)cc1` [Example 7, 2-[(S)-4,5,5-Tris-(4-fluoro-phenyl)-2-oxo-oxazolidin-3-yl]-acetamide]: the IC50 in assay [1] was determined as 720 nM; in assay [2], 45 nM.

Regarding `NC(=O)CN1C(=O)OC(c2ccc(F)cc2)(c2ccc(F)cc2)[C@@H]1c1ccccc1F` [Example 11, 2-[(S)-5,5-Bis-(4-fluoro-phenyl)-4-(2-fluoro-phenyl)-2-oxo-oxazolidin-3-yl]-acetamide], the figures for the IC50 in [1] and in assay [2] were 250 nM and 22 nM, respectively.

In the case of `NC(=O)CN1C(=O)OC(c2ccccc2F)(c2ccccc2F)[C@@H]1c1ccccc1F` [Example 13, 2-[(S)-4,5,5-Tris-(2-fluoro-phenyl)-2-oxo-oxazolidin-3-yl]-acetamide], the IC50 in assay [1] worked out at 340 nM; in assay [2], 15 nM.

`CCOC(=O)CN1C(=O)OC(c2cccc(F)c2)(c2cccc(F)c2)[C@@H]1c1ccccc1F` [Example 14, [(S)-5,5-Bis-(3-fluoro-phenyl)-4-(2-fluoro-phenyl)-2-oxo-oxazolidin-3-yl]-acetic acid ethyl ester]: the IC50 in [1] is 3600 nM.

For `NC(=O)CN1C(=O)OC(c2cccc(F)c2)(c2cccc(F)c2)[C@@H]1c1ccccc1F` [Example 15, 2-[(S)-5,5-Bis-(3-fluoro-phenyl)-4-(2-fluoro-phenyl)-2-oxo-oxazolidin-3-yl]-acetamide], the values for the IC50 in assay [1] and in assay [2] were 700 nM and 42 nM, respectively.

Molecule `CCOC(=O)CN1C(=O)OC(c2ccccc2)(c2ccccc2)[C@@H]1c1ccccc1F` [Example 16, [(S)-4-(2-Fluoro-phenyl)-2-oxo-5,5-diphenyl-oxazolidin-3-yl]-acetic acid ethyl ester] gave an IC50 in [1] of 1000 nM.

In the case of `NC(=O)CN1C(=O)OC(c2ccccc2)(c2ccccc2)[C@@H]1c1ccccc1F` [Example 17, 2-[(S)-4-(2-Fluoro-phenyl)-2-oxo-5,5-diphenyl-oxazolidin-3-yl]-acetamide], the IC50 in assay [1] is 880 nM; in assay [2] it was 15 nM.

`NC(=O)CN1C(=O)NC(c2ccc(F)cc2)(c2ccc(F)cc2)[C@@H]1c1ccccc1` [Example 18, (S)-2-(4,4-bis(4-fluorophenyl)-2-oxo-5-phenylimidazolidin-1-yl)acetamide]: inhibition in assay [1] was half-maximal at 3700 nM (IC50).

Take `NC(=O)CN1C(=O)OC(c2ccc(F)cc2)(c2ccc(F)cc2)[C@@H]1c1ccccc1Cl` [Example 19, 2-[(S)-4-(2-Chloro-phenyl)-5,5-bis-(4-fluoro-phenyl)-2-oxo-oxazolidin-3-yl]-acetamide]: the IC50 in assay [1] came to 740 nM; in assay [2], 63 nM.

In assay [1], `Cc1ccccc1[C@@H]1N(CC(N)=O)C(=O)OC1(c1ccc(F)cc1)c1ccc(F)cc1` [Example 20, 2-[(S)-5,5-Bis-(4-fluoro-phenyl)-2-oxo-4-o-tolyl-oxazolidin-3-yl]-acetamide] had an IC50 of 2200 nM.

In the case of `COC(=O)CN1C(=O)OC(c2ccc(F)cc2)(c2ccc(F)cc2)[C@@H]1c1ccccc1F` [Example 21, (S)-methyl 2-(4-(2-fluorophenyl)-5,5-bis(4-fluorophenyl)-2-oxooxazolidin-3-yl)acetate], the IC50 in assay [1] is 650 nM.

Regarding `CNC(=O)CN1C(=O)OC(c2ccc(F)cc2)(c2ccc(F)cc2)[C@@H]1c1ccccc1F` [Example 22, (S)-2-(4-(2-fluorophenyl)-5,5-bis(4-fluorophenyl)-2-oxooxazolidin-3-yl)-N-methylacetamide], it took 600 nM to reach half-maximal inhibition in assay [1] (IC50).

Take `CCNC(=O)CN1C(=O)OC(c2ccc(F)cc2)(c2ccc(F)cc2)[C@@H]1c1ccccc1F` [Example 23, (S)—N-ethyl-2-(4-(2-fluorophenyl)-5,5-bis(4-fluorophenyl)-2-oxooxazolidin-3-yl)acetamide]: in assay [1], the IC50 was 1960 nM.

In turn, `N#CCN1C(=O)OC(c2ccc(F)cc2)(c2ccc(F)cc2)[C@@H]1c1ccccc1F` [Example 24, [(S)-5,5-Bis-(4-fluoro-phenyl)-4-(2-fluoro-phenyl)-2-oxo-oxazolidin-3-yl]-acetonitrile] displayed an IC50 in [1] of 1480 nM.

For the molecule `O=C1OC(c2ccc(F)cc2)(c2ccc(F)cc2)[C@H](c2ccccc2F)N1Cc1nnc[nH]1` [Example 25, (S)-3-((4H-1,2,4-triazol-3-yl)methyl)-4-(2-fluorophenyl)-5,5-bis(4-fluorophenyl)oxazolidin-2-one], half-maximal inhibition in [1] (IC50) was put at 10000 nM.

`CCOC(=O)CN1C(=O)OC(c2ccc(F)cc2)(c2ccc(F)cc2)C1c1cccnc1` (stereo not drawn) [Example 26, Ethyl 2-(5,5-bis(4-fluorophenyl)-2-oxo-4-(pyridin-3-yl)oxazolidin-3-yl)acetate] showed an IC50 in assay [1] of 9200 nM.

In the case of `NC(=O)CN1C(=O)OC(c2ccc(F)cc2)(c2ccc(F)cc2)C1c1cccnc1` (stereo not drawn) [Example 27, 2-(5,5-bis(4-fluorophenyl)-2-oxo-4-(pyridin-3-yl)oxazolidin-3-yl)acetamide], the IC50 in [1] is 6700 nM.

For the molecule `NC(=O)CN1C(=O)OC(c2ccc(F)c(F)c2)(c2ccc(F)c(F)c2)[C@@H]1c1ccccc1` [Example 28, (S)-2-(5,5-bis(3,4-difluorophenyl)-2-oxo-4-phenyloxazolidin-3-yl)acetamide], in assay [1], half-maximal inhibition (IC50) was put at 770 nM.

Regarding `NC(=O)CN1C(=O)OC(c2cccc(Cl)c2)(c2cccc(Cl)c2)[C@@H]1c1ccccc1` [Example 29, 2-[(S)-5,5-Bis-(3-chloro-phenyl)-2-oxo-4-phenyl-oxazolidin-3-yl]-acetamide], the IC50 in assay [1] worked out at 6700 nM.

`NC(=O)CN1C(=O)OC(c2ccc(F)cc2)(c2ccc(F)cc2)C1c1ccccn1` (stereo not drawn) [Example 30, 2-(5,5-bis(4-fluorophenyl)-2-oxo-4-(pyridin-2-yl)oxazolidin-3-yl)acetamide]: the IC50 in [1] amounted to 17500 nM.

`CCOC(=O)CN1C(=O)OC(c2ccc(F)cc2)(c2ccc(F)cc2)[C@@H]1C(C)(C)C` [Example 35, [(S)-4-tert-Butyl-5,5-bis-(4-fluoro-phenyl)-2-oxo-oxazolidin-3-yl]-acetic acid ethyl ester] returned an IC50 in [1] of 450 nM.

With `NC(=O)C(c1ccccc1)(c1ccc(F)cc1)c1ccc(F)cc1` [Senicapoc], the “allergen challenge-induced airway resistance and hyper-reactivity” value in assay [5] is “reduce allergen challenge-induced airway resistance and hyper-reactivity”.

Take `Clc1ccccc1C(c1ccccc1)(c1ccccc1)n1cccn1` [TRAM-34]: the cyst formation entry in [6] is “inhibits cyst formation”. Moreover, the “severity of the symptoms” value in assay [7] is given as “significantly reduced the severity of the symptoms”. Also, the “T-cell and macrophage infiltration” value in [8] is “reduced T-cell and macrophage infiltration”. The “neointimal smooth muscle hyperplasia” value in assay [9] was “significantly reduced neointimal smooth muscle hyperplasia”. Further, the renal fibrosis result in assay [10] is reported as “significantly reduced renal fibrosis”.

The IC50 is the concentration that gives 50% inhibition.

The record behind these values is patent US9611232B2, “Oxazolidinone and imidazolidinone compounds” (Hoffmann-La Roche Inc., priority 2012, dated 2017).
